Assay results from PubChem BioAssay AID1117324 (Cheminformatics & Chemogenomics Research Group (CCRG), …, 2015).
The source made the active and inactive calls. The rule behind the calls is not given here. *1 amine or outer side, *2 acyl side, *3 side chain or, on linkers, in order; H or OH if unused. Where a SMILES comes first, the peptide text is derived from it. Bridges are numbered along the chain shown (N, C = ends). Roman numbers before positions name the chains, in order. [ ]: non-standard residue; d: D form. Actinocin(9to1) = Cc1c2oc3c(C)ccc(C(=O)[*:1])c3nc-2c(C(=O)[*:2])c(N)c1=O; NMeV = CN[C@H](C(=O)O)C(C)C; Sar = CNCC(=O)O

System: VEGF-stimulated ADSC/ECFC co-culture, nuclear area imaging
Assay: nuclear area loss in endothelial-stromal co-culture, dose response, cell-based, VEGF stimulation, IC50 (AID 1117324)

COCCOC(=O)C1=C(C)NC(C)=C(C(=O)OC/C=C/c2ccccc2)C1c1cccc([N+](=O)[O-])c1 (configuration not stated)
IC50: > 10 µM (inactive)

[O-][n+]1ccccc1SSc1cccc[n+]1[O-]
IC50: 1.79 µM

CCN1CCC[C@H]1CNC(=O)c1c(OC)ccc(Br)c1OC
IC50: > 10 µM (inactive)

CC(=O)[C@]1(O)Cc2c(O)c3c(c(O)c2[C@@H](O[C@H]2C[C@H](N)[C@H](O)[C@H](C)O2)C1)C(=O)c1ccccc1C3=O
IC50: 0.538 µM

CCCCCCCC[N+](C)(C)CCCCCCCC
IC50: 7.43 µM (inactive)

CCCCCCNC(=O)n1cc(F)c(=O)[nH]c1=O
IC50: > 10 µM (inactive)

O=[N+]([O-])C(Br)(CO)CO
IC50: > 10 µM (inactive)

COc1cccc(CCc2ccccc2OCC(CN(C)C)OC(=O)CCC(=O)O)c1 (configuration not stated)
IC50: > 10 µM (inactive)

CCCCCCCCCCCCCCCCCCNC(=O)OC1CCN(C(=O)OC[C@H](COC(=O)N(Cc2cccc[n+]2CC)C(=O)c2ccccc2OC)OC)CC1
IC50: > 10 µM (inactive)

COc1ccc(/C=N/NC(=O)c2ccncc2)cc1OC
IC50: > 10 µM (inactive)

Oc1ccc(Cl)cc1Sc1cc(Cl)ccc1O
IC50: 8.69 µM (inactive)

CN1CCC[C@@H]1CCO[C@](C)(c1ccccc1)c1ccc(Cl)cc1
IC50: > 10 µM (inactive)

CC[C@]1(O)CC[C@H]2[C@@H]3CCC4=CCCC[C@@H]4[C@H]3CC[C@@]21C
IC50: > 10 µM (inactive)

O=C(N/N=C/c1ccccc1O)c1ccncc1
IC50: > 10 µM (inactive)

O=C1NC2CCCCN2C12CCN(CCCN1c3ccccc3CCc3ccc(Cl)cc31)CC2 (configuration not stated)
IC50: > 10 µM (inactive)

Oc1c(I)cc(I)c2cccnc12
IC50: > 10 µM (inactive)

CCN(CC)CCOc1ccc(C(O)(Cc2ccc(Cl)cc2)c2ccc(C)cc2)cc1 (configuration not stated)
IC50: 6.98 µM (inactive)

COc1cccc2c1C(=O)c1c(O)c3c(c(O)c1C2=O)C[C@@](O)(C(=O)CO)CC3OC1CC(N2CCOC(OC)C2)C(O)C(C)O1 (some centres not stated)
IC50: 0.0442 µM

CCc1oc2ccccc2c1C(=O)c1cc(Br)c(O)c(Br)c1
IC50: > 10 µM (inactive)

Clc1ccc(CCC(Cn2ccnc2)Sc2c(Cl)cccc2Cl)cc1 (configuration not stated)
IC50: 6.74 µM (inactive)

CCCCN1CCCC1C(=O)Nc1c(C)cc(C)cc1C (configuration not stated)
IC50: > 10 µM (inactive)

Oc1ccc(O)cc1
IC50: > 10 µM (inactive)

O=C(Nc1ccc(Br)cc1)c1cc(Br)c(Br)s1
IC50: > 10 µM (inactive)

COc1cc2c(c(OC)c1OC)-c1ccc(OC)c(=O)cc1[C@@H](NC(C)=O)CC2
IC50: > 10 µM (inactive)

CCCCCCCCCCCC[N+](C)(C)CCOc1ccccc1
IC50: 7.29 µM (inactive)

O=c1[nH]sc2cc(Cl)ccc12
IC50: 9.43 µM (inactive)

Cc1c2oc3c(C)ccc(C(=O)N[C@@H]4C(=O)N[C@H](C(C)C)C(=O)N5CCC[C@H]5C(=O)N(C)CC(=O)N(C)[C@@H](C(C)C)C(=O)O[C@@H]4C)c3nc-2c(C(=O)N[C@@H]2C(=O)N[C@H](C(C)C)C(=O)N3CCC[C@H]3C(=O)N(C)CC(=O)N(C)[C@@H](C(C)C)C(=O)O[C@@H]2C)c(N)c1=O (I: T[dV]P[Sar][NMeV] / II: T[dV]P[Sar][NMeV]; ester I:1-I:C, II:1-II:C; linker I:N-II:N via Actinocin(9to1))
IC50: 0.0403 µM

CCN(CC)CCNc1ccc(CO)c2sc3ccccc3c(=O)c12
IC50: > 10 µM (inactive)

Clc1ccc(C(Cn2ccnc2)OCc2ccc(Sc3ccccc3)cc2)c(Cl)c1 (configuration not stated)
IC50: > 10 µM (inactive)

O=C1CC[C@H](C(=O)N2CCCCC2)N1
IC50: > 10 µM (inactive)

CC(C(O)c1ccccc1)N(C)C/C=C/c1ccccc1 (configuration not stated)
IC50: > 10 µM (inactive)

O=C(Nc1ccc(Oc2ccc(Cl)cc2)c(Cl)c1)c1cc(I)cc(I)c1O
IC50: 6.57 µM (inactive)

CCCCCCCC/C=C\CCCCCCCCN
IC50: 9.13 µM (inactive)

S=c1nc[nH]c2nc[nH]c12
IC50: > 10 µM (inactive)

Clc1cc(Cl)c(OCC#CI)cc1Cl
IC50: > 10 µM (inactive)

CCCOc1ccc2nc(NC(=O)OC)[nH]c2c1
IC50: > 10 µM (inactive)

C[C@]12CC[C@@H]3c4ccc(O)cc4CC[C@H]3[C@@H]1CC[C@@H]2OC(=O)CCC1CCCC1
IC50: > 10 µM (inactive)
